Measurements: patent publication EP4678638A1, “NEW E3 UBIQUITIN LIGASE LIGAND, PROTEIN DEGRADATION AGENT AND USE THEREOF” (priority 2023, dated 2024)

target: T1, FAK (Homo sapiens, UniProt Q05397); assay: Western blot degradation of FAK; format: cell-based; settings: Table D7
T1 construct: evaluate the effects of the compounds of the present disclosure on the expression of target proteins in cells; endogenous in cells
Protocol: Conventional Western blot assay was performed to evaluate the effects of the compounds of the present disclosure on the expression of target proteins in cells.
(1) Cell Seeding and Protein Harvesting: The selected cells were processed according to the cell seeding procedure and protein harvesting procedure in Table III-2. Table III-2 Cell Seeding and Protein Harvesting Procedures
(2) To the collected supernatant, 5X SDS sample loading buffer was added, followed by denaturation at 95°C for 5 minutes. The denatured samples were then separated by SDS-PAGE electrophoresis on a polyacrylamide gel. Proteins were transferred to a nitrocellulose membrane (0.45 µm NC membrane), blocked with blocking buffer at room temperature for 1 hour, and subjected to antibody incubation and development procedures according to the antibody manufacturer's instructions (Cell Signaling Technology).
Half-Maximal Degradation Concentration value (the drug concentration required for degrading proteins by 50%, abbreviated as DC50) reads method: comparing the grayscale values of Western blot bands from drug-treated samples with those from blank DMSO-treated controls, and identifying the drug concentration range at which the grayscale value is half that of the DMSO-treated control bands.
DC50 values can be calculated using ImageJ software to measure grayscale values of Western blot bands from drug-treated samples. The concentration-response curve is fitted to estimate the drug concentration corresponding to half the grayscale value.
Target protein remaining (%) refers to the percentage of target protein remaining in hPBMC cells after treatment with protein degrader compounds.
Calculation method for target protein remaining (%): Use ImageJ software to measure grayscale values of Western blot bands from drug (protein degrader)-treated samples. The grayscale value of drug-treated bands is divided by that of internal control protein bands, and the resulting quotient is normalized to obtain the relative percentage of remaining target protein after protein degrader treatment.
Target protein degradation rate (%) = 100% - target protein remaining (%).

T1 sequence (Q05397 whole entry, species assumed): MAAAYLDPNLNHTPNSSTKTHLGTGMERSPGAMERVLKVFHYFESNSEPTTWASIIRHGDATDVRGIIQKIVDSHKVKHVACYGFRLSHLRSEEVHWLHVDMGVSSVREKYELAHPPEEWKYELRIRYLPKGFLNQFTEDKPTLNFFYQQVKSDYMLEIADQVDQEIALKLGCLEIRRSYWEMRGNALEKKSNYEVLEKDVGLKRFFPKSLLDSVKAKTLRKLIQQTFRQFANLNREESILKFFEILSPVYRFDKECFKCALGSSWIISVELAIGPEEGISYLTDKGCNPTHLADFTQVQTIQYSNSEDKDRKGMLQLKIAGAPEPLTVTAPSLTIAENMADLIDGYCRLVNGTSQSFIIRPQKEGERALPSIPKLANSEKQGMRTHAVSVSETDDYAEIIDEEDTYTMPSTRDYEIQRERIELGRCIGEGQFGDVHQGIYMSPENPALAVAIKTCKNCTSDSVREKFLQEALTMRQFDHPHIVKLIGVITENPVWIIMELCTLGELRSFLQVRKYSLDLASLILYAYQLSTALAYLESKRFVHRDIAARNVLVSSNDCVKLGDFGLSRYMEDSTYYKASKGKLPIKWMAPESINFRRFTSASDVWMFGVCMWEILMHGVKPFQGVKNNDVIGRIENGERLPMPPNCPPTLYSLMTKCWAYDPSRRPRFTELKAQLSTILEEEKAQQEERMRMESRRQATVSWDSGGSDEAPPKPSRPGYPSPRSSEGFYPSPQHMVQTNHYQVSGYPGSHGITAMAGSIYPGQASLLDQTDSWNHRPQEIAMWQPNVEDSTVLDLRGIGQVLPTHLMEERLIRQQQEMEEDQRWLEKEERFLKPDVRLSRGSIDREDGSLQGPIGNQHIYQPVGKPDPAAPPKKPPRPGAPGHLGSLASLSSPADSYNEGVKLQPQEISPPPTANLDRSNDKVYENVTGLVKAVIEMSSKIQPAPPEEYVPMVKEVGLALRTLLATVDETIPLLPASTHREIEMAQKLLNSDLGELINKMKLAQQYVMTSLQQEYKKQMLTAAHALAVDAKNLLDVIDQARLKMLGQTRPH

SMILES	Degradation of substrate protein FAK (substrate protein remaining %)
CS(=O)(=O)c1cccc(CNc2nc(Nc3ccc(N4CCN(Cc5ccc(C6CCC(=O)NC6=O)cc5)CC4)cc3)ncc2C(F)(F)F)c1 (stereo not shown) [GT-03822, 3-(4-((4-(4-((4-((3-(methylsulfonyl)benzyl)amino)-5-(trifluoromethyl)pyrimidin-2-yl)amino)phenyl)piperazin-1-yl)methyl)phenyl)piperidine-2,6-dione]	A (A is defined as 0% ≤ substrate protein remaining % ≤ 80%)
CNC(=O)c1ccccc1Nc1cc(Nc2ccc(N3CCC(N(C)Cc4ccc(N5CCC(=O)NC5=O)cc4)CC3)cc2OC)ncc1C(F)(F)F [GT-07649, 2-((2-((4-(4-((4-(2,4-dioxotetrahydropyrimidin-1(2H)-yl)benzyl)(methyl)amino)piperidin-1-yl)-2-methoxyphenyl)amino)-5-(trifluoromethyl)pyridin-4-yl)amino)-N-methylbenzamide]	A (A is defined as 0% ≤ substrate protein remaining % ≤ 80%)
CS(=O)(=O)c1cccc(CNc2nc(Nc3ccc(N4CCN(Cc5ccc(C6CCC(=O)NC6=O)cn5)CC4)cc3)ncc2C(F)(F)F)c1 (stereo not shown) [GT-07466, 3-(6-((4-(4-((4-((3-(methylsulfonyl)benzyl)amino)-5-(trifluoromethyl)pyrimidin-2-yl)amino)phenyl)piperazin-1-yl)methyl)pyridin-3-yl)piperidine-2,6-dione]	A (A is defined as 0% ≤ substrate protein remaining % ≤ 80%)
CS(=O)(=O)c1cccc(CNc2nc(Nc3ccc(N4CCN(Cc5ccc(C6CCC(=O)NC6=O)c(F)c5)CC4)cc3)ncc2C(F)(F)F)c1 (stereo not shown) [GT-03823, 3-(2-fluoro-4-((4-(4-((4-((3-(methylsulfonyl)benzyl)amino)-5-(trifluoromethyl)pyrimidin-2-yl)amino)phenyl)piperazin-1-yl)methyl)phenyl)piperidine-2,6-dione]	A (A is defined as 0% ≤ substrate protein remaining % ≤ 80%)
CNC(=O)c1ccccc1Nc1cc(Nc2cc(C)c(C3CCN(Cc4cncc(N5CCC(=O)NC5=O)c4)CC3)cc2OC(C)C)ncc1C(F)(F)F [GT-07674, 2-((2-((4-(1-((5-(2,4-dioxotetrahydropyrimidin-1(2H)-yl)pyridin-3-yl)methyl)piperidin-4-yl)-2-isopropoxy-5-methylphenyl)amino)-5-(trifluoromethyl)pyridin-4-yl)amino)-N-methylbenzamide]	A (A is defined as 0% ≤ substrate protein remaining % ≤ 80%)
CNC(=O)c1ccccc1Nc1cc(Nc2cc(C)c(C3CCN(Cc4cncc(C5CCC(=O)NC5=O)c4)CC3)cc2OC(C)C)ncc1C(F)(F)F (stereo not shown) [GT-07678, 2-((2-((4-(1-((5-(2,6-dioxopiperidin-3-yl)pyridin-3-yl)methyl)piperidin-4-yl)-2-isopropoxy-5-methylphenyl)amino)-5-(trifluoromethyl)pyridin-4-yl)amino)-N-methylbenzamide]	A (A is defined as 0% ≤ substrate protein remaining % ≤ 80%)
CN(c1nccnc1CNc1nc(Nc2ccc(N3CCN(Cc4ccnc(N5CCC(=O)NC5=O)c4)CC3)cc2)ncc1C(F)(F)F)S(C)(=O)=O [GT-07406, N-(3-(((2-((4-(4-((2-(2,4-dioxotetrahydropyrimidin-1(2H)-yl)pyridin-4-yl)methyl)piperazin-1-yl)phenyl)amino)-5-(trifluoromethyl)pyrimidin-4-yl)amino)methyl)pyrazin-2-yl)-N-methylmethanesulfonamide]	A (A is defined as 0% ≤ substrate protein remaining % ≤ 80%)
CS(=O)(=O)c1cccc(CNc2nc(Nc3ccc(N4CCN(Cc5ccnc(N6CCC(=O)NC6=O)c5)CC4)cc3)ncc2C(F)(F)F)c1 [GT-07462, 1-(4-((4-(4-((4-((3-(methylsulfonyl)benzyl)amino)-5-(trifluoromethyl)pyrimidin-2-yl)amino)phenyl)piperazin-1-yl)methyl)pyridin-2-yl)dihydropyrimidine-2,4(1H,3H)-dione]	A (A is defined as 0% ≤ substrate protein remaining % ≤ 80%)
CN(c1nccnc1CNc1nc(Nc2ccc(N3CCN(Cc4ccc(N5CCC(=O)NC5=O)cc4)CC3)cc2)ncc1C(F)(F)F)S(C)(=O)=O [GT-07400, N-(3-(((2-((4-(4-(4-(2,4-dioxotetrahydropyrimidin-1(2H)-yl)benzyl)piperazin-1-yl)phenyl)amino)-5-(trifluoromethyl)pyrimidin-4-yl)amino)methyl)pyrazin-2-yl)-N-methylmethanesulfonamide]	A (A is defined as 0% ≤ substrate protein remaining % ≤ 80%)
CNC(=O)c1ccccc1Nc1cc(Nc2cc(C)c(C3CCN(Cc4ccc(N5CCC(=O)NC5=O)nc4)CC3)cc2OC(C)C)ncc1C(F)(F)F [GT-07670, 2-((2-((4-(1-((6-(2,4-dioxotetrahydropyrimidin-1(2H)-yl)pyridin-3-yl)methyl)piperidin-4-yl)-2-isopropoxy-5-methylphenyl)amino)-5-(trifluoromethyl)pyridin-4-yl)amino)-N-methylbenzamide]	A (A is defined as 0% ≤ substrate protein remaining % ≤ 80%)
CNC(=O)c1ccccc1Nc1cc(Nc2cc(C)c(N3CCN(Cc4ccc(C5CCC(=O)NC5=O)c(F)c4)CC3)cc2OC(C)C)ncc1C(F)(F)F (stereo not shown) [GT-03947, 2-((2-((4-(4-(4-(2,6-dioxopiperidin-3-yl)-3-fluorobenzyl)piperazin-1-yl)-2-isopropoxy-5-methylphenyl)amino)-5-(trifluoromethyl)pyridin-4-yl)amino)-N-methylbenzamide]	A (A is defined as 0% ≤ substrate protein remaining % ≤ 80%)
CN(c1nccnc1CNc1nc(Nc2ccc(N3CCN(Cc4cc(N5CCC(=O)NC5=O)ncc4F)CC3)cc2)ncc1C(F)(F)F)S(C)(=O)=O [GT-07405, N-(3-(((2-((4-(4-((2-(2,4-dioxotetrahydropyrimidin-1(2H)-yl)-5-fluoropyridin-4-yl)methyl)piperazin-1-yl)phenyl)amino)-5-(trifluoromethyl)pyrimidin-4-yl)amino)methyl)pyrazin-2-yl)-N-methylmethanesulfonamide]	A (A is defined as 0% ≤ substrate protein remaining % ≤ 80%)
CS(=O)(=O)c1cccc(CNc2nc(Nc3ccc(N4CCN(Cc5cccc(N6CCC(=O)NC6=O)c5)CC4)cc3)ncc2C(F)(F)F)c1 [GT-04178, 1-(3-((4-(4-((4-((3-(methylsulfonyl)benzyl)amino)-5-(trifluoromethyl)pyrimidin-2-yl)amino)phenyl)piperazin-1-yl)methyl)phenyl)dihydropyr imidine-2,4(1H,3H)-dione]	A (A is defined as 0% ≤ substrate protein remaining % ≤ 80%)
CNC(=O)c1ccccc1Nc1cc(Nc2ccc(N3CCC(N(C)Cc4cccc(N5CCC(=O)NC5=O)c4)CC3)cc2OC)ncc1C(F)(F)F [GT-07650, 2-((2-((4-(4-((3-(2,4-dioxotetrahydropyrimidin-1(2H)-yl)benzyl)(methyl)amino)piperidin-1-yl)-2-methoxyphenyl)amino)-5-(trifluoromethyl)pyridin-4-yl)amino)-N-methylbenzamide]	A (A is defined as 0% ≤ substrate protein remaining % ≤ 80%)
CNC(=O)c1ccccc1Nc1cc(Nc2ccc(N3CCC(N(C)Cc4cccc(NC5CCC(=O)NC5=O)c4)CC3)cc2OC)ncc1C(F)(F)F (stereo not shown) [GT-07652, 2-((2-((4-(4-((3-((2,6-dioxopiperidin-3-yl)amino)benzyl)(methyl)amino)piperidin-1-yl)-2-methoxyphenyl)amino)-5-(trifluoromethyl)pyridin-4-yl)amino)-N-methylbenzamide]	A (A is defined as 0% ≤ substrate protein remaining % ≤ 80%)
CNC(=O)c1ccccc1Nc1cc(Nc2cc(C)c(C3CCN(Cc4ccc(C5CCC(=O)NC5=O)c(F)c4)CC3)cc2OC(C)C)ncc1C(F)(F)F (stereo not shown) [GT-04085, 2-((2-((4-(1-(4-(2,6-dioxopiperidin-3-yl)-3-fluorobenzyl)piperidin-4-yl)-2-isopropoxy-5-methylphenyl)amino)-5-(trifluoromethyl)pyridin-4-yl)amino)-N-methylbenzamide]	A (A is defined as 0% ≤ substrate protein remaining % ≤ 80%)
